Measured values: patent publication US20220330529A1, “METHODS FOR GENERATING ANIMAL MODELS FOR NONALCOHOLIC FATTY LIVER DISEASE” (INNOLAND BIOSCIENCES (ZHEJIANG) CO., LTD., priority 2019, published 2022)

How the values were obtained:
[1] = test system: MS-NASH mice; test: Therapeutic effects of OCA in WDF fed MS-NASH mice treated low dose CCl4; type: in vivo, mouse; conditions: OCA 30 mg/kg orally once daily 8 weeks vs vehicle
Description: (§1) Male MS-NASH (formally FATZO) mice were developed by Crown Bioscience as the new generation of mouse model with obese, metabolic disorder, diabetes and NAFLD/NASH that is more translatable to human diseases. The animals for this study were bred housed individually in IVC cages (Taicang, China) or open ventilated cages (Indianapolis, Ind.), and fed control diet (CD, Purina 5008 chow, LabDiet, St. Louis, Mo.) with distilled water ad libitum for the first 8 weeks after birth, then, stratified into different experimental groups based on body weight, serum ALT and AST. Room temperature was monitored and maintained at 22-26° C. with a 12-hour light cycle (06:00-18:00). C57B1/6J mice (The Jackson Laboratory, Ellsworth, Maine) were used as control strain and housed under the same conditions. All mice were maintained and treated in accordance with the guidelines of Association for Assessment and Accreditation of Laboratory Animal Care (AAALAC), and experimental protocols approved by the Institutional Animal Care and Use Committee (IACUC).
(§2) In all the experiments, body weights were recorded every 4 weeks. […]
(§3) All values are reported as Mean±SEM, unless noted otherwise. […] Parametric correlation tests were conducted between pathologist scores and ImageDx quantitative analysis using Pearson correlation coefficient r. […]

[2] = test system: C57B1/6 mice; test: Therapeutic effects of OCA in WDF fed C57B1/6 mice treated low dose CCl4; type: in vivo, mouse; conditions: OCA 30 mg/kg orally once daily 8 weeks vs vehicle
Description: as §1, §2, §3

[3] = test system: MS-NASH mice; test: Low dose CCl4 (0.08 mL/kg) twice weekly for 8 weeks in MS-NASH mice on WDF; type: in vivo, mouse
Description: as §1
(§4) In all the experiments, body weights were recorded every 4 weeks. At the end of the experiments, all mice were euthanized by CO2 inhalation and confirmed with cervical dislocation approximately 24 hours after the last CCl4 administration.
(§5) Blood samples: Blood samples during the course of the experiment were collected from the tail or at the end of the experiment from cardiac puncture, from which, serum prepared for measuring AST and ALT by a clinical analyzer (Beckman-Coulter AU480; Brea, Calif.). In the low dose CCl4 repeated treatment group, in-life blood samples were taken—24 hours, and terminal blood samples taken, —24 hours after CCl4 doing, respectively. A separate experiment was performed to observe the acute time course at 24, 48 and 72 hours in response to a single dose of CCl4 at 0.2 mL/kg in MS-NASH mice on CD.
Liver contents: The right lobe of the liver (— 200 mg/animal) was collected and snap frozen in liquid nitrogen, placed in Lysing Matrix D Tubes with distilled water at 20% concentration (MP Biomedicals, Santa Anna, CA), homogenized in a Fastprep-FP120 cell disrupter (Thermo Fisher Savant) in cold condition for 30 seconds. The liver contents of triglyceride and cholesterol were analyzed by a clinical analyzer (Beckman-Coulter AU480) within 30 min of sample preparation.
(§6) Tissue processing: The liver tissues were fixed in 10% neutral buffered formalin (NBF) at 4° C. for 24 hours followed by baths of standard concentrations of alcohol then xylene to prepare the tissues for paraffin embedding. After being embedded in paraffin and cooled, five-micron sections were cut and stained for routine H&E and Picric Sirius Red.
(§7) Semi-quantitative scoring by a pathologist: The digital images were evaluated by a well-trained research pathologist blind of different study groups with the standard NASH criteria for semi-quantitative scoring commonly used in preclinical animal models and in patients. Hepatosteatosis, lobular inflammation, and hepatocyte balloon degeneration were scored individually from the H&E staining and then summarized as a standard NAFLD Activity Score (NAS). Fibrosis score was assessed systemically with pattern recognition from PSR staining. Three representative areas per liver were examined and the scores of each parameter from individual animal were averaged.
Computerized quantitative analysis: Computer software with […] (AI) machine learning algorithm for histology analysis from Halo (Indica Labs, Albuquerque, N. Mex.) or ImageDx (Reveal Biosciences, San Diego, Calif.) were used to analyze digitally scanned images of H&E and PSR staining for quantitative analysis of steatosis, ballooning, inflammation or fibrosis in a set of the same slides evaluated by the pathologist. […]

[4] = test system: mice model; conditions: high chemical dosage (0.8-1.0 ml/kg) required to generate liver fibrosis phenotype; cited from earlier work
[5] = test system: MS-NASH mice; test: High dose CCl4 (0.2 mL/kg) twice weekly for 3 weeks in MS-NASH mice on WDF; type: in vivo, mouse
Description: as §1, §4, §5, §6, §7
Computerized quantitative analysis: Computer software with […] (AI) machine learning algorithm for histology analysis from Halo (Indica Labs, Albuquerque, N. Mex.) or ImageDx (Reveal Biosciences, San Diego, Calif.) were used to analyze digitally scanned images of H&E and PSR staining for quantitative analysis of steatosis, ballooning, inflammation or fibrosis in a set of the same slides evaluated by the pathologist. The analysis process included automated tissue identification, followed by segmentation of regions of interest for quantification of the following metrics: 1) Steatosis percentage: the area of total lipid accumulation subcategorized micro- or macro-vesicular within the entire section area; 2) Ballooning hepatocyte density: the density of ballooning hepatocytes within the entire section area; 3) Inflammatory cell density: the total number of inflammatory cells within the entire section area. All 3 parameters above were analyzed in the H&E stained section. 4)Fibrosis percentage: the total fibrosis area within the entire section area in the PSR stained section. […]

[6] = test system: C57B1/6 mice; test: Survival rate in C57B1/6 mice on WDF under CCl4; type: in vivo, mouse; conditions: low dose CCl4; C57B1/6 compared to MS-NASH mice; trend not statistically significant
Protocol: (§8) All values are reported as Mean±SEM, unless noted otherwise. Model characterization were compared in MS-NASH mice on CD or WDF with or without CCl4; and effects of OCA were compared to vehicle with One-Way ANOVA for multiple groups or Holm-Sidak t-test for 2 groups. Survival curves of total MS-NASH mice and C57B1/6 mice were compared using Log-rank test for trend. Parametric correlation tests were conducted between pathologist scores and ImageDx quantitative analysis using Pearson correlation coefficient r. Statistical differences were denoted as p<0.05 or p<0.005. Prism software (GraphPad, version 8.3) was used for the statistical analysis and graphing.
(§9) This example illustrates survival rate in MS-NASH and C57B1/6 mice on WDF and treated high and low dose of CCL4.

[7] = test system: MS-NASH mice; test: Low dose CCl4 (0.08 mL/kg) twice weekly for 8 weeks in MS-NASH mice on WDF; type: in vivo, mouse; conditions: week 12 and 14, 3 days after CCl4 dosing, vs mice on WDF only
[8] = test system: MS-NASH mice; test: Survival rate in MS-NASH mice on WDF under CCl4; type: in vivo, mouse
Protocol: as §8, §9

[9] = WDF + CCl4 0.08 mL/kg twice weekly
[10] = CCl4 0.08 mL/kg twice weekly 8 weeks, WDF vs WDF+CCl4
[11] = CCl4 0.08 mL/kg twice weekly 8 weeks, end of study
[12] = CCl4 0.08 mL/kg twice weekly 8 weeks, with vs without CCl4
[13] = CCl4 0.08 mL/kg, 24 hours after the last dose at end of experiment, compared to high dose CCl4
[14] = CCl4 0.2 mL/kg IP twice weekly 3 weeks, vs CD or WDF without CCl4
[15] = CCl4 0.2 mL/kg twice weekly 3 weeks, MS-NASH mice on WDF
[16] = CCl4 0.2 mL/kg twice weekly 3 weeks, measured 24 hours after the last dose

Compound: CC[C@H]1[C@@H](O)[C@@H]2[C@H](CC[C@]3(C)[C@@H]([C@H](C)CCC(=O)O)CC[C@@H]23)[C@@]2(C)CC[C@@H](O)C[C@@H]12 [OCA, obeticholic acid]
- serum ALT level [1]: no significant effect
- body weight [1, 9]: no significant effect
- serum ALT level [2]: no significant effect
- body weight [2, 9]: no significant effect

Compound: ClC(Cl)(Cl)Cl [CCl4, carbon tetrachloride]
- liver fibrosis score evaluated by the pathologist [3, 10]: significantly aggravated
- other aspects of liver pathology (NAS scores by the pathologist) [3, 10]: little influence
- liver contents of cholesterol [3, 11]: significantly reduced
- liver weight [3, 11]: significantly reduced
- body weight ([3]; CCl4 0.08 mL/kg twice weekly 8 weeks, vs mice without CCl4): reduced
- fibrosis area by Reveal ImageDx [3, 12]: larger
- steatosis area, inflammatory cell infiltration and degenerated liver cell counts by Reveal ImageDx [3, 12]: no significant difference
- elevation of serum ALT [3, 13]: not as dramatic
- elevation of serum AST [3, 13]: not as dramatic
- NAFLD progression and fibrosis development ([3]; MS-NASH mice fed WDF with 0.08 ml/kg CCl4): accelerated
- body weight [4]: severe body weight loss
- caloric intake [5, 14]: significantly reduced
- food intake [5, 14]: significantly reduced
- body weight ([5]; CCl4 0.2 mL/kg IP twice weekly 3 weeks, vs MS-NASH mice on CD or WDF without CCl4): significantly reduced
- fibrosis area by computer analysis software (Halo) from PSR images [5, 15]: ~8%
- histopathology images (H&E, PSR) [5, 15]: aggravated liver injury and centrilobular fibrosis
- pathology scores by the pathologist (steatosis, inflammation, ballooning, overall NAS, fibrosis score) [5, 15]: failed to detect such enhanced pathology
- serum ALT [5, 16]: dramatically elevated
- serum AST [5, 16]: dramatically elevated
- survival rate [6]: tended to be lower
- in-life serum ALT level [7]: significantly lower
- in-life serum AST level [7]: significantly lower
- death ([8]; high dose CCl4 (0.2 mL/kg twice weekly), within the first 3 weeks): ~20%
- survival rate ([8]; lower dose CCl4 (0.08 mL/kg twice weekly), end of 8-week experimental duration): 87.5%
